The values that follow are results of earlier work, collected in US20040235808A1, “Androstanes as androgen receptor modulators” (priority 2001, published 2004).

Where only a bound is given, the exact number is not on record here.

The conditions of series [1]: median of 22 months of treatment.
For series [2] the following is noted: after 7 years of treatment.

Turning to “hPTH(1-34): human parathyroid hormone 1-34 fragment (SVSEIQLMHNLGKHLNSMERVEWLRKKLQDVHNF; Parathyroid hormone; UniProt P01270 32-65, looked up, fragment)”, in series [1], the “reduction in nonvertebral fractures” value was 54% and the “reduction in spine fractures” value is recorded as at least 65%. For `NCCCC(O)(P(=O)([O-])O)P(=O)(O)O.O.O.O.[Na+]` [alendronate, (4-amino-1-hydroxybutylidene)-bis-phosphonate monosodium trihydrate], the “increase in spinal BMD” value in series [2] is given as 11%.
